Among the data in PubChem BioAssay AID256 (DTP/NCI, 2004) are T/C values, retold here.

The subject of the test is CD2F1 mice, L1210 leukemia ip, survival T/C. Nature of the test: NCI In Vivo Anticancer Drug Screen. Data for tumor model L1210 Leukemia (intraperitoneal) in CD2F1 (CDF1) mice. The note with it: higher = longer survival. Put shortly: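 Transplantable tumor in mice; compound-treated vs vehicle-treated groups. Read-out = treated/control ratio of the measured endpoint.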
Where [1] appears, read: endpoint: mean survival time, dose: 100.0 mg/kg/injection, schedule: Q01DX009 (ip), vehicle: saline.
Where [2] appears, read: endpoint: mean survival time, dose: 100.0 mg/kg/injection, schedule: Q04DX003 (ip), vehicle: saline with Tween-80.
[3] abbreviates: endpoint: mean survival time, dose: 200.0 mg/kg/injection, schedule: Q04DX003 (ip), vehicle: saline with Tween-80.
The mark [4] stands for this setting: endpoint: mean survival time, dose: 400.0 mg/kg/injection, schedule: Q04DX003 (ip), vehicle: saline with Tween-80.
Setting [5] is: endpoint: mean survival time, dose: 100.0 mg/kg/injection, schedule: Q01DX001 (ip), vehicle: saline with Tween-80.
[6] abbreviates: endpoint: mean survival time, dose: 200.0 mg/kg/injection, schedule: Q01DX001 (ip), vehicle: saline with Tween-80.
[7] abbreviates: endpoint: mean survival time, dose: 12.5 mg/kg/injection, schedule: Q01DX009 (ip), vehicle: saline with Tween-80.
[8] abbreviates: endpoint: mean survival time, dose: 25.0 mg/kg/injection, schedule: Q01DX009 (ip), vehicle: saline with Tween-80.
[9] abbreviates: endpoint: mean survival time, dose: 50.0 mg/kg/injection, schedule: Q01DX009 (ip), vehicle: other.
The mark [10] stands for this setting: endpoint: mean survival time, dose: 50.0 mg/kg/injection, schedule: Q01DX009 (ip), vehicle: saline with Tween-80.
Setting [11] is: endpoint: mean survival time, dose: 100.0 mg/kg/injection, schedule: Q01DX009 (ip), vehicle: other.
The mark [12] stands for this setting: endpoint: mean survival time, dose: 100.0 mg/kg/injection, schedule: Q01DX009 (ip), vehicle: saline with Tween-80.
The mark [13] stands for this setting: endpoint: mean survival time, dose: 200.0 mg/kg/injection, schedule: Q01DX009 (ip), vehicle: other.
Where [14] appears, read: endpoint: mean survival time, dose: 200.0 mg/kg/injection, schedule: Q01DX009 (ip), vehicle: saline with Tween-80.
Where [15] appears, read: endpoint: mean survival time, dose: 50.0 mg/kg/injection, schedule: Q01DX009 (ip), vehicle: saline.

Values joined by “and” are separate entries in the source; they are usually repeats but may differ in a detail not shown here. Equal values may be shown once. Inconclusive results and toxic doses are left out.

Take `CNC1CCC(C(=O)O)CC1` (stereo unspecified): the T/C was 107 % of control under setting [1]; 103 % of control (endpoint: mean survival time, dose: 200.0 mg/kg/injection, schedule: Q01DX009 (ip), vehicle: saline); 96 % of control (endpoint: mean survival time, dose: 400.0 mg/kg/injection, schedule: Q01DX009 (ip), vehicle: saline).
Turning to `C[n+]1c2ccccc2cc2ccccc21`, the T/C runs as follows: (endpoint: mean survival time, dose: 12.0 mg/kg/injection, schedule: Q04DX003 (ip), vehicle: saline) 102 % of control; (endpoint: mean survival time, dose: 25.0 mg/kg/injection, schedule: Q04DX003 (ip), vehicle: saline) 98 % of control.
Turning to `O=c1ccn2c(n1)OC1CC2OC1COC(c1ccccc1)(c1ccccc1)c1ccccc1` (stereo unspecified), the T/C is 102 % of control (endpoint: median survival time, dose: 12.5 mg/kg/injection, schedule: Q01DX005 (ip), vehicle: saline with Tween-80); 96 % of control (endpoint: median survival time, dose: 25.0 mg/kg/injection, schedule: Q01DX005 (ip), vehicle: saline with Tween-80); 95 % of control (endpoint: median survival time, dose: 50.0 mg/kg/injection, schedule: Q01DX005 (ip), vehicle: saline with Tween-80); 95 % of control (endpoint: median survival time, dose: 100.0 mg/kg/injection, schedule: Q01DX005 (ip), vehicle: saline with Tween-80); 98 % of control (endpoint: median survival time, dose: 200.0 mg/kg/injection, schedule: Q01DX005 (ip), vehicle: saline with Tween-80).
For the compound `c1coc(-c2nc3ccccc3s2)c1`, the T/C is, setting by setting: (endpoint: mean survival time, dose: 50.0 mg/kg/injection, schedule: Q01DX001 (ip), vehicle: Klucel (hydroxypropylcellulose) (HPC)) 96 % of control; (endpoint: mean survival time, dose: 100.0 mg/kg/injection, schedule: Q01DX001 (ip), vehicle: Klucel (hydroxypropylcellulose) (HPC)) 93 % of control and 95 % of control; (endpoint: mean survival time, dose: 200.0 mg/kg/injection, schedule: Q01DX001 (ip), vehicle: Klucel (hydroxypropylcellulose) (HPC)) 120 % of control and 90 % of control.
Regarding `COc1ccc(CNC(C)(C#N)c2ccccc2)cc1OC` (stereo unspecified), the T/C is, setting by setting: under setting [2], 107 % of control; under setting [3], 93 % of control; under setting [4], 98 % of control.
In the case of `O=S1(=O)CC2(C1)CS(=O)(=O)C2`, the T/C under setting [5] is 103 % of control and the T/C under setting [6] was 90 % of control.
`CC1=C(/C=C/C(C)=N/NC(N)=S)C(C)(C)CCC1`: the T/C under setting [7] was 106 % of control; the T/C under setting [8] is 115 % of control; the T/C (endpoint: mean survival time, dose: 25.0 mg/kg/injection, schedule: Q04DX003 (ip), vehicle: saline with Tween-80) was 98 % of control; the T/C (endpoint: mean survival time, dose: 50.0 mg/kg/injection, schedule: Q04DX003 (ip), vehicle: saline with Tween-80) was 104 % of control.
With `Nc1nc2n[nH]nc2c(=O)[nH]1`, the T/C reads like this: (endpoint: mean survival time, dose: 0.78 mg/kg/injection, schedule: Q01DX009 (ip), vehicle: saline with Tween-80) 103 % of control; (endpoint: mean survival time, dose: 1.56 mg/kg/injection, schedule: Q01DX009 (ip), vehicle: saline with Tween-80) 115 % of control; under setting [7], 150 % of control; under setting [8], 151 % of control; under setting [9], 154 % of control; under setting [10], 156 % of control and 158 % of control. The T/C is, setting by setting: (endpoint: mean survival time, dose: 50.0 mg/kg/injection, schedule: Q03DX003 (ip), vehicle: other) 120 % of control; (endpoint: mean survival time, dose: 50.0 mg/kg/injection, schedule: Q04DX003 (ip), vehicle: other) 111 % of control; (endpoint: mean survival time, dose: 75.0 mg/kg/injection, schedule: Q01DX009 (ip), vehicle: saline with Tween-80) 114 % of control; (endpoint: mean survival time, dose: 100.0 mg/kg/injection, schedule: Q01DX001 (ip), vehicle: saline sonified) 108 % of control; under setting [11], 153 % of control; under setting [12], 97 % of control and 107 % of control. Further, the T/C (endpoint: mean survival time, dose: 100.0 mg/kg/injection, schedule: Q04DX003 (ip), vehicle: other) was 123 % of control; the T/C (endpoint: mean survival time, dose: 200.0 mg/kg/injection, schedule: Q01DX001 (ip), vehicle: saline sonified) was 108 % of control; the T/C (endpoint: mean survival time, dose: 200.0 mg/kg/injection, schedule: Q01DX007 (ip), vehicle: other) is 150 % of control; the T/C under setting [13] is 153 % of control; the T/C (endpoint: mean survival time, dose: 200.0 mg/kg/injection, schedule: Q01DX009 (ip), vehicle: saline sonified) is 106 % of control; the T/C under setting [14] was 97 % of control. The T/C was 120 % of control (endpoint: mean survival time, dose: 200.0 mg/kg/injection, schedule: Q03DX003 (ip), vehicle: other); 119 % of control (endpoint: mean survival time, dose: 200.0 mg/kg/injection, schedule: Q04DX003 (ip), vehicle: other); 112 % of control (endpoint: mean survival time, dose: 400.0 mg/kg/injection, schedule: Q01DX001 (ip), vehicle: saline sonified); 164 % of control (endpoint: median survival time, dose: 50.0 mg/kg/injection, schedule: Q01DX009 (ip), vehicle: saline); 164 % of control (endpoint: median survival time, dose: 100.0 mg/kg/injection, schedule: Q01DX009 (ip), vehicle: saline); 164 % of control (endpoint: median survival time, dose: 200.0 mg/kg/injection, schedule: Q01DX009 (ip), vehicle: saline). The T/C (endpoint: median survival time, dose: 400.0 mg/kg/injection, schedule: Q01DX009 (ip), vehicle: saline) is 111 % of control.
Regarding `COc1ccc(N=N/N=c2\sc3cc(OC)ccc3n2C)cc1`, the T/C by setting is: (endpoint: median survival time, dose: 7.5 mg/kg/injection, schedule: Q01DX005 (ip), vehicle: saline with Tween-80) 100 % of control; (endpoint: median survival time, dose: 15.0 mg/kg/injection, schedule: Q01DX005 (ip), vehicle: saline with Tween-80) 105 % of control; (endpoint: median survival time, dose: 30.0 mg/kg/injection, schedule: Q01DX005 (ip), vehicle: saline with Tween-80) 108 % of control; (endpoint: median survival time, dose: 42.5 mg/kg/injection, schedule: Q01DX005 (ip), vehicle: saline with Tween-80) 102 % of control; (endpoint: median survival time, dose: 60.0 mg/kg/injection, schedule: Q01DX005 (ip), vehicle: saline with Tween-80) 105 % of control; (endpoint: median survival time, dose: 85.0 mg/kg/injection, schedule: Q01DX005 (ip), vehicle: saline with Tween-80) 102 % of control. In addition, the T/C by setting is: (endpoint: median survival time, dose: 120.0 mg/kg/injection, schedule: Q01DX005 (ip), vehicle: saline with Tween-80) 104 % of control; (endpoint: median survival time, dose: 170.0 mg/kg/injection, schedule: Q01DX005 (ip), vehicle: saline with Tween-80) 100 % of control.
Take `N#CCCC(=O)c1nc(N)nc(N)n1`: the T/C by setting is: under setting [10], 91 % of control; under setting [12], 91 % of control; under setting [14], 91 % of control.
With `CC(=O)OCC1OC2OC(C)(OC(C)(C)C)OC2C(OC(C)=O)C1OC(C)=O` (stereo unspecified), the T/C was 97 % of control (endpoint: mean survival time, dose: 12.5 mg/kg/injection, schedule: Q01DX009 (ip), vehicle: other); 95 % of control (endpoint: mean survival time, dose: 25.0 mg/kg/injection, schedule: Q01DX009 (ip), vehicle: other); 97 % of control under setting [9]; 103 % of control under setting [11]; 98 % of control under setting [13].
`N/C(=N\Cl)C(Cl)(Cl)Cl`: the T/C is, setting by setting: (endpoint: mean survival time, dose: 12.5 mg/kg/injection, schedule: Q01DX009 (ip), vehicle: saline) 105 % of control; (endpoint: mean survival time, dose: 25.0 mg/kg/injection, schedule: Q01DX009 (ip), vehicle: saline) 103 % of control; under setting [15], 109 % of control.
As for `CC(C)CC(NC(=O)OCc1ccccc1)C(=O)NCCCCCCCCCCNC(=O)C(CC(C)C)NC(=O)OCc1ccccc1` (stereo unspecified), the T/C (endpoint: mean survival time, dose: 10.0 mg/kg/injection, schedule: Q01DX Z (ip), vehicle: saline) was 96 % of control; the T/C (endpoint: mean survival time, dose: 30.0 mg/kg/injection, schedule: Q01DX Z (ip), vehicle: saline) is 97 % of control; the T/C (endpoint: mean survival time, dose: 100.0 mg/kg/injection, schedule: Q01DX Z (ip), vehicle: saline) was 91 % of control; the T/C (endpoint: mean survival time, dose: 300.0 mg/kg/injection, schedule: Q01DX Z (ip), vehicle: saline) is 97 % of control.
As to `O=[N+]([O-])c1cccc(S(=O)(=O)O)c1.[Fe]`, the T/C was 103 % of control under setting [15] and 91 % of control under setting [1].
Take `Cc1ccc(S(=O)(=O)N(CCC(=O)O)c2ccccc2)cc1`: the T/C reads like this: under setting [2], 101 % of control; under setting [3], 97 % of control; under setting [4], 98 % of control.
For the compound `CCc1c(Br)c(CC)c(CC)c(Br)c1CC`, the T/C reads like this: under setting [5], 105 % of control; under setting [12], 104 % of control; under setting [6], 95 % of control; under setting [14], 101 % of control; (endpoint: mean survival time, dose: 400.0 mg/kg/injection, schedule: Q01DX001 (ip), vehicle: saline with Tween-80) 103 % of control; (endpoint: mean survival time, dose: 400.0 mg/kg/injection, schedule: Q01DX009 (ip), vehicle: saline with Tween-80) 96 % of control.
